{"source": "patent US20210380547A1", "about": "“UREA DERIVATIVES FOR TREATING AND/OR PREVENTING CANCER” (CENTRE NATIONAL DE LA RECHERCHE SCIENTIFIQUE, priority 2018, published 2021)", "key": {"[1]": {"test_system": "CAL33", "assay": "XTT cell viability assay, CAL33", "type": "cell-based", "conditions": "Homo sapiens, CAL-33; XTT assay (48 h); standard deviation of 10%; read-out: EC50 (μM) Head and Neck CAL33", "method": "(§1) Fifty microliters of sodium 3′-[1-phenylaminocarbonyl)-3,4-tetrazolium]-bis(4-methoxy-6-nitro) benzene sulfonic acid hydrate (XTT) reagent was added to each well. The assay is based on the cleavage of the yellow tetrazolium salt XTT to form an orange formazan dye by metabolically active cells. The absorbance of the formazan product, reflecting cell viability, was measured at 490 nm. Each assay was performed in quadruplicate.\n(§2) Compounds #1-#14 have been assayed as potential anti-proliferative agents against a panel of human breast head and neck, and kidney tumor cells and hematological malignancies, selected on the basis of their aggressiveness (e.g. incurable triple-negative breast cancer cells: MDA-MB-231; kidney ccRCC cells: RCC4, A498 and 786-O and 786R; head and neck cancer cells: CAL33, CAL33RR, CAL27, and CAL27RR; acute myeloid cell lines: OCI-AML2, OCI-AML3, MolM13, and MolM14; myelodysplastic cell line: SM1; and chronic myeloid cell line: CML). All these cell lines share as common denominator the expression of CXCR1 and CXCR2. The EC50 values have been measured by a XTT colorimetric assay, and compared to those of SB-225002, used as a reference; the results are listed in Table 1."}, "[2]": {"test_system": "K562", "assay": "XTT cell viability assay, K562", "type": "cell-based, human", "conditions": "Homo sapiens, K562; XTT assay (48 h); standard deviation of 10%; read-out: EC50 (μM) CML K562", "method": "as §1, §2"}, "[3]": {"test_system": "healthy human fibroblasts (FHN)", "assay": "FACS analysis of cell death markers (AV, PI), healthy fibroblasts", "type": "cell-based", "conditions": "5 μM, 48 h", "method": "FIG. 1: Observation by FACS analyses of early (Annexin AV) and late (Propidium Iodide, PI) apoptosis markers expressed by healthy and malignant cells after treatment with compounds #1 and #2 at 5 μM. CT: negative control.\n(§3) Apoptosis analysis: After stimulation, cells were washed with ice-cold PBS and were stained with the annexin-V-fluos staining kit (Roche, Meylan, France) according to the manufacturer's procedure. Fluorescence was measured by using the FL2 (AV) and FL3 (propidium iodide, PI) channels of a fluorescence-activated cell sorter apparatus (Calibur cytometer).\nTo complete these XTT assays, malignant (ccRCC and hematological) and healthy (human fibroblasts FHN) cells have been grown with compounds #1 or #2, and after 48h the expression of cell death markers (AV and PI) has been quantified by FACS analyses (FIG. 1)."}, "[4]": {"test_system": "786-O and 786-R cells", "assay": "Clonogenicity (colony formation) assay, RCC cells", "type": "cell-based, human", "conditions": "1 μM, 10 days", "method": "G: Clonogenicity assays: RCC cells ([…] and 786-R) were treated with compound #1 or sunitinib (1 μM) and colored with Giemsa blue after 10 days (representative results of an experiment repeated trice);\nCells (5000 cells per condition) were treated or not with compound #1 and sunitinib, and cisplatin. Colonies were detected after 10 days of culture. Cells were then washed, fixed at room temperature for 20 min with 3% paraformaldehyde (PFA; Electron Microscopy Sciences) and colored by GIEMSA (Sigma)"}, "[5]": {"test_system": "primary RCC cells (TF and CC)", "assay": "XTT cell viability and colony assay, primary RCC cells", "type": "cell-based", "conditions": "Homo sapiens, XTT 48 h, read-out: EC50 proliferation of primary kidney tumor cells", "method": "A: Primary RCC cells (TF and CC) and normal renal cells (15S) were treated with compound #1 (1 to 5 μM) for 48 h. Cell viability was measured by XTT assays;\nB: Primary RCC cells (TF and CC) were treated with compound #1 (1 or 2.5 μM) and colored with Giemsa blue after 10 days (representative results of an experiment repeated trice);\nas §1\nThe biological effects of compound #1 on primary RCC tumors cells and normal renal cells harvested from patients suffering from kidney cancer have been explored (FIG. 4)."}, "[6]": {"test_system": "TF and CC cells", "assay": "FACS apoptosis markers, primary RCC cells", "type": "cell-based, human", "conditions": "1 μM, 48 h", "method": "(§4) C: Primary RCC cells (TF and CC) and normal renal cells (15S) were treated with compound #1 (1 to 5 μM) for 48 h. Cells were stained with the PI/annexin-V-fluos staining kit according to the manufacturer's indications. Histograms show both annexin-V+/PI− cells (open bars) and annexin-V+/PI+ cells (filled bars). *P<0.05; **P<0.01; ***P<0.001.\nas §3"}, "[7]": {"test_system": "healthy cells 15S", "assay": "FACS apoptosis markers, normal renal cells", "type": "cell-based, human", "conditions": "48 h", "method": "as §4, §3"}, "[8]": {"assay": "Pharmacokinetics after oral gavage in mice", "type": "in vivo", "conditions": "oral gavage 50 mg/Kg", "method": "Compound #1 was then formulated at 7.6 mg/mL, and administrated by oral gavage at 50 mg/Kg (n=12 mice) and pharmacokinetic parameters have been measured (Table 2)."}, "[9]": {"test_system": "DAOY and HD-MB03 cells", "assay": "Proliferation test, medulloblastoma cells", "type": "cell-based", "conditions": "1 μM, cell counts days 1 to 8, vs DMSO", "method": "FIG. 7: Inhibition of proliferation of medulloblastoma cells by compound #1. Cells were treated or not with 1 μM compound #1 for the indicated days. Cells were counted at the indicated days. * p<0.05; ** p<0.01; *** p<0.001.\n1500 DAOY and HD-MB03 cells were seeded in a 6-well plate with or without treatment (1 μM of compound #1 or DMSO as control “CONT”), at 37° C. in a 5% CO2 incubator. Cells were dissociated using trypsone 1X-EDTA (Gibco® Life Technologies) and were counted with Coulter Beckman® counter (Villepinte) at days 1, 4, 6, 7, and 8. Each assay was performed in triplicate."}, "[10]": {"test_system": "DAOY and HD-MB03 cells", "assay": "Clonogenicity, medulloblastoma cells", "type": "cell-based", "conditions": "1 μM, Day+7 (DAOY), Day+11 (HD-MB03)", "method": "FIG. 8: Inhibition of proliferation of medulloblastoma cells by compound #1. Clonogenicity tests; […].\n150 DAOY cells and 300 HD-MB03 cells were seeded in a 6-well plate with or without treatment (1 μM of compound #1 or DMSO as control “CONT”). At Day+7 (DAOY) and Day+11 (HD-MB03), cells were mixed with absolute ethanol for 20 minutes, washed with PBS and colored with Giemsa 50% for 30 minutes. After washing, the boxes were scanned and the number of clones was quantified using ImageJ® software. Each assay was performed in duplicate."}}}
{"compound": "O=C(Nc1cccc(Cl)c1)Nc1nc2ccc([N+](=O)[O-])cc2s1", "note": "[Compound #1, 1-(3-chlorophenyl)-3-(6-nitrobenzo[d]thiazol-2-yl)urea]", "values": [{"measurement": "EC50", "setting": "[1]", "value": 2, "unit": "µM"}, {"measurement": "EC50", "setting": "[2]", "value": 2, "unit": "µM"}, {"measurement": "apoptosis of healthy human fibroblasts (FHN)", "setting": "[3]", "value": "no increased apoptosis over the control experiment"}, {"measurement": "clonogenicity", "setting": "[4]", "value": "exerts a cytostatic effect"}, {"measurement": "EC50", "setting": "[5]", "value": "~2000", "unit": "nM"}, {"measurement": "apoptosis markers in TF and CC cells", "setting": "[6]", "value": "puts into exergue the apoptosis markers in TF and CC cells"}, {"measurement": "apoptosis markers in healthy cells 15S", "setting": "[7]", "value": "not the case with healthy cells 15S"}, {"measurement": "half-life", "setting": "[8]; mouse, in vivo", "value": "> 3.17", "unit": "h"}, {"measurement": "AUC", "setting": "[8]; mouse, in vivo, po, 50 mg/kg, read-out: AUC lastPO (converted)", "value": "~1420", "unit": "ng·h/mL"}, {"measurement": "Tmax", "setting": "[8]", "value": 0.5, "unit": "h"}, {"measurement": "AUC lastPO", "setting": "[8]; 50 mg/kg", "value": "84965 ± 9367", "unit": "ng·min/mL"}, {"measurement": "proliferation of DAOY and HD-MB03 cells", "setting": "[9]", "value": "significatively reduces the proliferation"}, {"measurement": "formation of DAOY and HD-MB03 clones", "setting": "[10]", "value": "significatively reduces the formation"}]}
